Where “and” joins values, the source holds several entries; their conditions need not be identical. Identical values can stand only once.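 Method: 48-hour compound exposure of cells in 96-well plates, five concentrations, linear interpolation of endpoints. GI50 = concentration required for 50% inhibition of growth.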 Calls of active or inactive are those of the source. Cut-off read from the data, not from the text of the source: active = GI50 up to about 1.1 µM and inactive = higher.
Key:
Assay in all cases: DTP human tumour cell line panel, 48 h
A498 = tested on: A498
A549 = tested on: A549
ACHN = tested on: ACHN
BT-549 = tested on: BT-549
CAKI-1 = tested on: CAKI-1
CCRF-CEM = tested on: CCRF-CEM
COLO 205 = tested on: COLO 205
DU-145 = tested on: DU-145
HCC 2998 = tested on: HCC 2998
HCT-116 = tested on: HCT-116
HCT-15 = tested on: HCT-15
HL-60 = tested on: HL-60
HOP-62 = tested on: HOP-62
HOP-92 = tested on: HOP-92
HT-29 = tested on: HT-29
Hs-578T = tested on: Hs-578T
IGROV-1 = tested on: IGROV-1
K562 = tested on: K562
LOX IMVI = tested on: LOX IMVI
M14 = tested on: M14
MCF7 = tested on: MCF7
MDA-MB-231 = tested on: MDA-MB-231
MDA-MB-435 = tested on: MDA-MB-435
MDA-N = tested on: MDA-N
MOLT-4 = tested on: MOLT-4
Malme-3M = tested on: Malme-3M
NCI-H226 = tested on: NCI-H226
NCI-H23 = tested on: NCI-H23
NCI-H460 = tested on: NCI-H460
NCI-H522 = tested on: NCI-H522
NCI/ADR-RES = tested on: NCI/ADR-RES
OVCAR-3 = tested on: OVCAR-3
OVCAR-4 = tested on: OVCAR-4
OVCAR-5 = tested on: OVCAR-5
OVCAR-8 = tested on: OVCAR-8
PC-3 = tested on: PC-3
RPMI-8226 = tested on: RPMI-8226
RXF 393 = tested on: RXF 393
SF-539 = tested on: SF-539
SK-MEL-28 = tested on: SK-MEL-28
SK-MEL-2 = tested on: SK-MEL-2
SK-MEL-5 = tested on: SK-MEL-5
SK-OV-3 = tested on: SK-OV-3
SN12C = tested on: SN12C
SNB-19 = tested on: SNB-19
SNB-75 = tested on: SNB-75
SR = tested on: SR
SW-620 = tested on: SW-620
TK-10 = tested on: TK-10
U-251 = tested on: U-251
UACC-257 = tested on: UACC-257
UACC-62 = tested on: UACC-62
UO-31 = tested on: UO-31

SMILES: Oc1ccc2ccccc2c1/N=N/c1ccccc1
- GI50 (A498): > 100 µM (inactive)
- GI50 (A549): 57.5 µM (inactive)
- GI50 (ACHN): 61 µM (inactive) and 60.7 µM (inactive)
- GI50 (BT-549): > 100 µM (inactive)
- GI50 (CAKI-1): > 100 µM (inactive)
- GI50 (CCRF-CEM): > 100 µM (inactive)
- GI50 (COLO 205): > 100 µM (inactive)
- GI50 (DU-145): > 100 µM (inactive)
- GI50 (HCC 2998): > 100 µM (inactive)
- GI50 (HCT-116): > 100 µM (inactive)
- GI50 (HCT-15): > 100 µM
- GI50 (HL-60): > 100 µM (inactive) and 73.1 µM (inactive)
- GI50 (HOP-62): 33.5 µM (inactive) and > 60 µM (inactive)
- GI50 (HOP-92): 73.5 µM (inactive)
- GI50 (HT-29): 49.5 µM (inactive) and > 64.7 µM (inactive)
- GI50 (Hs-578T): > 57.3 µM (inactive) and 35.4 µM (inactive)
- GI50 (IGROV-1): > 69.2 µM (inactive)
- GI50 (K562): > 100 µM (inactive) and 91 µM (inactive)
- GI50 (LOX IMVI): > 100 µM (inactive)
- GI50 (M14): > 100 µM (inactive)
- GI50 (MCF7): > 100 µM (inactive)
- GI50 (MDA-MB-231): 54.5 µM (inactive) and > 82.4 µM (inactive)
- GI50 (MDA-MB-435): > 100 µM (inactive)
- GI50 (MDA-N): > 100 µM (inactive)
- GI50 (MOLT-4): > 100 µM (inactive)
- GI50 (Malme-3M): > 100 µM (inactive)
- GI50 (NCI-H226): 73.3 µM (inactive)
- GI50 (NCI-H23): > 100 µM (inactive)
- GI50 (NCI-H460): > 100 µM (inactive)
- GI50 (NCI-H522): > 100 µM (inactive) and > 75.3 µM (inactive)
- GI50 (NCI/ADR-RES): > 100 µM (inactive)
- GI50 (OVCAR-3): 51.6 µM (inactive)
- GI50 (OVCAR-4): > 70.5 µM (inactive) and 45.2 µM (inactive)
- GI50 (OVCAR-5): > 100 µM (inactive)
- GI50 (OVCAR-8): 56.1 µM (inactive)
- GI50 (PC-3): > 87.9 µM (inactive)
- GI50 (RPMI-8226): > 100 µM (inactive)
- GI50 (RXF 393): > 100 µM (inactive)
- GI50 (SF-539): > 100 µM (inactive)
- GI50 (SK-MEL-28): > 100 µM (inactive)
- GI50 (SK-MEL-2): > 100 µM (inactive)
- GI50 (SK-MEL-5): > 100 µM (inactive)
- GI50 (SK-OV-3): 53.3 µM (inactive)
- GI50 (SN12C): > 100 µM (inactive)
- GI50 (SNB-19): > 100 µM (inactive) and > 72.8 µM (inactive)
- GI50 (SNB-75): > 100 µM (inactive)
- GI50 (SR): > 100 µM (inactive)
- GI50 (SW-620): > 100 µM (inactive)
- GI50 (TK-10): 73.3 µM (inactive)
- GI50 (U-251): 51.9 µM (inactive) and > 56 µM (inactive)
- GI50 (UACC-257): > 100 µM (inactive)
- GI50 (UACC-62): > 100 µM (inactive)
- GI50 (UO-31): > 100 µM (inactive)

— ChEMBL document CHEMBL1201862, “PubChem BioAssay data set” (2004)
